Data: ChEMBL document CHEMBL4145553, “Design, synthesis, and biological evaluation of novel amide and hydrazide based thioether analogs targeting Histone deacteylase (HDAC) enzymes” (Eur J Med Chem, 2018)

Experiments:
Type in all cases: functional
NCI-H522 = experiment: Growth inhibition of human NCI-H522 cells assessed as cell growth at 10^-8 M incubated for 48 hrs by sulforhodamine B assay relative to control; conditions: NCI-H522, 48 h, read-out: Activity
SW-620 = experiment: Growth inhibition of human SW620 cells assessed as cell growth at 10^-8 M incubated for 48 hrs by sulforhodamine B assay relative to control; conditions: SW-620, 48 h, read-out: Activity
SF-295 = experiment: Growth inhibition of human SF295 cells assessed as cell growth at 10^-8 M incubated for 48 hrs by sulforhodamine B assay relative to control; conditions: SF-295, 48 h, read-out: Activity
MDA-MB-435 [1] = experiment: Growth inhibition of human MDA-MB-435 cells assessed as cell growth at 10^-8 M incubated for 48 hrs by sulforhodamine B assay relative to control; conditions: MDA-MB-435, 48 h, read-out: Activity
OVCAR-8 [2] = experiment: Growth inhibition of human OVCAR8 cells assessed as cell growth at 10^-8 M incubated for 48 hrs by sulforhodamine B assay relative to control; conditions: OVCAR-8, 48 h, read-out: Activity
U-251 = experiment: Growth inhibition of human U251 cells assessed as cell growth at 10^-7 M incubated for 48 hrs by sulforhodamine B assay relative to control; conditions: U-251, 48 h, read-out: Activity
OVCAR-5 = experiment: Growth inhibition of human OVCAR5 cells assessed as cell growth at 10^-7 M incubated for 48 hrs by sulforhodamine B assay relative to control; conditions: OVCAR-5, 48 h, read-out: Activity
DU-145 = experiment: Growth inhibition of human DU145 cells assessed as cell growth at 10^-7 M incubated for 48 hrs by sulforhodamine B assay relative to control; conditions: DU-145, 48 h, read-out: Activity
COLO 205 = experiment: Growth inhibition of human COLO205 cells assessed as cell growth at 10^-6 M incubated for 48 hrs by sulforhodamine B assay relative to control; conditions: COLO 205, 48 h, read-out: Activity
HCT-116 = experiment: Growth inhibition of human HCT116 cells assessed as cell growth at 10^-6 M incubated for 48 hrs by sulforhodamine B assay relative to control; conditions: HCT-116, 48 h, read-out: Activity
SF-539 = experiment: Growth inhibition of human SF539 cells assessed as cell growth at 10^-6 M incubated for 48 hrs by sulforhodamine B assay relative to control; conditions: SF-539, 48 h, read-out: Activity
SK-MEL-28 = experiment: Growth inhibition of human SK-MEL-28 cells assessed as cell growth at 10^-6 M incubated for 48 hrs by sulforhodamine B assay relative to control; conditions: SK-MEL-28, 48 h, read-out: Activity
SK-OV-3 = experiment: Growth inhibition of human SKOV3 cells assessed as cell growth at 10^-6 M incubated for 48 hrs by sulforhodamine B assay relative to control; conditions: SK-OV-3, 48 h, read-out: Activity
CCRF-CEM = experiment: Growth inhibition of human CCRF-CEM cells assessed as cell growth at 10^-5 M incubated for 48 hrs by sulforhodamine B assay relative to control; conditions: read-out: Activity
NCI-H226 = experiment: Growth inhibition of human NCI-H226 cells assessed as cell growth at 10^-5 M incubated for 48 hrs by sulforhodamine B assay relative to control; conditions: NCI-H226, 48 h, read-out: Activity
HCT-15 [3] = experiment: Growth inhibition of human HCT15 cells assessed as cell growth at 10^-5 M incubated for 48 hrs by sulforhodamine B assay relative to control; conditions: HCT-15, 48 h, read-out: Activity
UACC-257 = experiment: Growth inhibition of human UACC257 cells assessed as cell growth at 10^-5 M incubated for 48 hrs by sulforhodamine B assay relative to control; conditions: UACC-257, 48 h, read-out: Activity
NCI/ADR-RES [4] = experiment: Growth inhibition of human NCI/ADR-RES cells assessed as cell growth at 10^-5 M incubated for 48 hrs by sulforhodamine B assay relative to control; conditions: read-out: Activity
Hs-578T = experiment: Growth inhibition of human Hs 578T cells assessed as cell growth at 10^-5 M incubated for 48 hrs by sulforhodamine B assay relative to control; conditions: read-out: Activity
EKVX = experiment: Growth inhibition of human EKVX cells assessed as cell growth at 10^-4 M incubated for 48 hrs by sulforhodamine B assay relative to control; conditions: read-out: Activity
LOX IMVI = experiment: Growth inhibition of human LOXIMVI cells assessed as cell growth at 10^-4 M incubated for 48 hrs by sulforhodamine B assay relative to control; conditions: read-out: Activity
MDA-MB-435 [5] = experiment: Growth inhibition of human MDA-MB-435 cells assessed as cell growth at 10^-4 M incubated for 48 hrs by sulforhodamine B assay relative to control; conditions: MDA-MB-435, 48 h, read-out: Activity
NCI-H322M = experiment: Growth inhibition of human NCI-H322M cells incubated for 48 hrs by sulforhodamine B assay
HCT-15 [6] = experiment: Growth inhibition of human HCT15 cells incubated for 48 hrs by sulforhodamine B assay; conditions: HCT-15, 48 h
OVCAR-8 [7] = experiment: Growth inhibition of human OVCAR8 cells incubated for 48 hrs by sulforhodamine B assay; conditions: OVCAR-8, 48 h
NCI/ADR-RES [8] = experiment: Growth inhibition of human NCI/ADR-RES cells incubated for 48 hrs by sulforhodamine B assay
786-0 = experiment: Growth inhibition of human 786-0 cells incubated for 48 hrs by sulforhodamine B assay; conditions: 786-0, 48 h
HL-60 [9] = experiment: Antiproliferative activity against human HL60 cells after 24 hrs by MTT assay
HL-60 [10] = experiment: Induction of apoptosis in human HL60 cells assessed as necrotic cells by propidium iodide/Annexin V staining based flow cytometry (reference value: 0.34%)
MDA-MB-435 [11] = experiment: Cell cycle arrest in human MDA-MB-435 cells assessed as accumulation at G2-phase by propidium iodide staining based flow cytometry (reference value: 3.68%)
[12] = read-out: LC50 (the source's name)
[13] = read-out: pLC50 (the source's name) (converted)

Q: CCS/C(Nc1ccccc1)=C(\C#N)C(=O)N/N=C\c1ccc(Cl)cc1Cl was tested. Which growth at 0.01 µM (NCI-H522) did it give?
A: 109%

Q: And the growth at 0.01 µM (SW-620)?
A: 97%

Q: And the growth at 0.01 µM (SF-295)?
A: 95%

Q: And the growth at 0.01 µM (MDA-MB-435 [1])?
A: 95%

Q: And the growth at 0.01 µM (OVCAR-8 [2])?
A: 94%

Q: What about the growth at 0.1 µM (U-251) of the same molecule?
A: 98%

Q: What about the growth at 0.1 µM (OVCAR-5) of the same molecule?
A: 96%

Q: What about the growth at 0.1 µM (DU-145) of the same molecule?
A: 98%

Q: And the growth at 1 µM (COLO 205)?
A: 99%

Q: What about the growth at 1 µM (HCT-116) of the same molecule?
A: 89%

Q: And the growth at 1 µM (SF-539)?
A: 90%

Q: And the growth at 1 µM (SK-MEL-28)?
A: 79%

Q: And the growth at 1 µM (SK-OV-3)?
A: 92%

Q: What about the growth at 10 µM (CCRF-CEM) of the same molecule?
A: 16%

Q: And the growth at 10 µM (NCI-H226)?
A: 27%

Q: And the growth at 10 µM (HCT-15 [3])?
A: 19%

Q: What about the growth at 10 µM (UACC-257) of the same molecule?
A: 61%

Q: What about the growth at 10 µM (NCI/ADR-RES [4]) of the same molecule?
A: 13%

Q: And the growth at 10 µM (Hs-578T)?
A: 18%

Q: What about the growth at 100 µM (EKVX) of the same molecule?
A: 29%

Q: And the growth at 100 µM (LOX IMVI)?
A: 22%

Q: What about the growth at 100 µM (MDA-MB-435 [5]) of the same molecule?
A: -52%

Q: And the GI50 (NCI-H322M; read-out: GI50)?
A: 6.87 µM

Q: And the CC50 (NCI-H322M; [12])?
A: > 100 µM

Q: What about the TGI (NCI-H322M; read-out: TGI) of the same molecule?
A: > 100 µM

Q: And the GI50 (NCI-H322M; read-out: pGI50 (converted))?
A: 6.92 µM

Q: And the CC50 (NCI-H322M; [13])?
A: > 100 µM

Q: What about the TGI (NCI-H322M; read-out: pTGI) of the same molecule?
A: > 100 µM

Q: What about the GI50 (HCT-15 [6]; read-out: GI50) of the same molecule?
A: 2.9 µM

Q: What about the CC50 (HCT-15 [6]; [12]) of the same molecule?
A: > 100 µM

Q: And the TGI (HCT-15 [6]; read-out: TGI)?
A: > 100 µM

Q: And the GI50 (HCT-15 [6]; read-out: pGI50 (converted))?
A: 2.88 µM

Q: What about the CC50 (HCT-15 [6]; [13]) of the same molecule?
A: > 100 µM

Q: And the TGI (HCT-15 [6]; read-out: pTGI)?
A: > 100 µM

Q: What about the GI50 (OVCAR-8 [7]; read-out: GI50) of the same molecule?
A: 4.81 µM

Q: And the CC50 (OVCAR-8 [7]; [12])?
A: > 100 µM

Q: And the TGI (OVCAR-8 [7]; read-out: TGI)?
A: > 100 µM

Q: And the GI50 (OVCAR-8 [7]; read-out: pGI50 (converted))?
A: 4.79 µM

Q: What about the CC50 (OVCAR-8 [7]; [13]) of the same molecule?
A: > 100 µM

Q: And the TGI (OVCAR-8 [7]; read-out: pTGI)?
A: > 100 µM

Q: And the GI50 (NCI/ADR-RES [8]; read-out: GI50)?
A: 3.16 µM

Q: And the CC50 (NCI/ADR-RES [8]; [12])?
A: > 100 µM

Q: What about the TGI (NCI/ADR-RES [8]; read-out: TGI) of the same molecule?
A: > 100 µM

Q: And the GI50 (NCI/ADR-RES [8]; read-out: pGI50 (converted))?
A: 3.16 µM

Q: What about the CC50 (NCI/ADR-RES [8]; [13]) of the same molecule?
A: > 100 µM

Q: And the TGI (NCI/ADR-RES [8]; read-out: pTGI)?
A: > 100 µM

Q: And the GI50 (786-0; read-out: GI50)?
A: 3.5 µM

Q: And the CC50 (786-0; [12])?
A: > 100 µM

Q: What about the TGI (786-0; read-out: TGI) of the same molecule?
A: > 100 µM

Q: What about the GI50 (786-0; read-out: pGI50 (converted)) of the same molecule?
A: 3.47 µM

Q: What about the CC50 (786-0; [13]) of the same molecule?
A: > 100 µM

Q: What about the TGI (786-0; read-out: pTGI) of the same molecule?
A: > 100 µM

Q: What about the Activity (HL-60 [9]) of the same molecule?
A: Dose-dependent effect

Q: What about the GI50 (HL-60 [9]; Homo sapiens, HL-60, 24 h) of the same molecule?
A: 3.2 µM

Q: What about the Activity (HL-60 [10]) of the same molecule?
A: 2.03%

Q: And the Activity (MDA-MB-435 [11])?
A: 12.4%
